According to PubChem BioAssay (NCI):
“And” between values parts separate entries of the source, which are not always exact repeats. Equal entries are not always repeated.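 How tested: cells in 96-well plates exposed to compound for 48 hours at five concentrations. GI50: concentration for 50% inhibition of growth. The concentration for full growth arrest is given as TGI.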

What was measured:
Test in all cases: NCI tumour cell line growth inhibition, 48 h
SNB-78 CNS = system: SNB-78 CNS
HOP-18 NSCLC = system: HOP-18 NSCLC
RXF 393 renal = system: RXF 393 renal
MCF7 breast = system: MCF7 breast
CAKI-1 renal = system: CAKI-1 renal
COLO 205 colon = system: COLO 205 colon
SN12C renal = system: SN12C renal
OVCAR-8 ovarian = system: OVCAR-8 ovarian
SF-268 CNS = system: SF-268 CNS
SNB-75 CNS = system: SNB-75 CNS
UACC-62 melanoma = system: UACC-62 melanoma
NCI-H460 lung = system: NCI-H460 lung
HOP-92 NSCLC = system: HOP-92 NSCLC
P388 leukemia = system: P388 leukemia
OVCAR-5 ovarian = system: OVCAR-5 ovarian
KM12 colon = system: KM12 colon
MOLT-4 leukemia = system: MOLT-4 leukemia
OVCAR-4 ovarian = system: OVCAR-4 ovarian
DMS 114 small cell lung = system: DMS 114 small cell lung
NCI-H226 lung = system: NCI-H226 lung
SNB-19 CNS = system: SNB-19 CNS
DLD-1 colon = system: DLD-1 colon
U251 CNS = system: U251 CNS
OVCAR-3 ovarian = system: OVCAR-3 ovarian
SK-MEL-5 melanoma = system: SK-MEL-5 melanoma
NCI-H23 lung = system: NCI-H23 lung
M19-MEL melanoma = system: M19-MEL melanoma
SF-539 CNS = system: SF-539 CNS
P388/ADR leukemia = system: P388/ADR leukemia
CCRF-CEM leukemia = system: CCRF-CEM leukemia
SW-620 colon = system: SW-620 colon
UACC-257 melanoma = system: UACC-257 melanoma
SK-OV-3 ovarian = system: SK-OV-3 ovarian
DMS 273 small cell lung = system: DMS 273 small cell lung
RPMI-8226 leukemia = system: RPMI-8226 leukemia
K-562 leukemia = system: K-562 leukemia
MALME-3M melanoma = system: MALME-3M melanoma
HT29 colon = system: HT29 colon
SF-295 CNS = system: SF-295 CNS
NCI-H522 lung = system: NCI-H522 lung
KM20L2 colon = system: KM20L2 colon
IGROV1 ovarian = system: IGROV1 ovarian
HL-60(TB) leukemia = system: HL-60(TB) leukemia
HCT-15 colon = system: HCT-15 colon
A498 renal = system: A498 renal
SK-MEL-28 melanoma = system: SK-MEL-28 melanoma
HCC-2998 colon = system: HCC-2998 colon
EKVX NSCLC = system: EKVX NSCLC
HOP-62 NSCLC = system: HOP-62 NSCLC
HCT-116 colon = system: HCT-116 colon
SN12K1 renal = system: SN12K1 renal
A549 NSCLC = system: A549 NSCLC
XF 498 CNS = system: XF 498 CNS
UO-31 renal = system: UO-31 renal
SK-MEL-2 melanoma = system: SK-MEL-2 melanoma
LOX IMVI melanoma = system: LOX IMVI melanoma
NCI/ADR-RES ovarian = system: NCI/ADR-RES ovarian
M14 melanoma = system: M14 melanoma
ACHN renal = system: ACHN renal
SR leukemia = system: SR leukemia
LXFL 529 NSCLC = system: LXFL 529 NSCLC
TK-10 renal = system: TK-10 renal
786-0 renal = system: 786-0 renal
RXF-631 renal = system: RXF-631 renal

## O=C1CCCCN1
SNB-78 CNS
  TGI: > 1120 µM
HOP-18 NSCLC
  TGI: > 1120 µM
RXF 393 renal
  TGI: > 1120 µM
MCF7 breast
  TGI: > 1120 µM
CAKI-1 renal
  TGI: > 1120 µM
COLO 205 colon
  TGI: > 1120 µM
SN12C renal
  TGI: > 1120 µM
OVCAR-8 ovarian
  TGI: > 1120 µM
SF-268 CNS
  TGI: > 1120 µM
SNB-75 CNS
  TGI: > 1120 µM
UACC-62 melanoma
  TGI: > 1120 µM
NCI-H460 lung
  TGI: > 1120 µM
HOP-92 NSCLC
  TGI: > 1120 µM
P388 leukemia
  TGI: > 707 µM
OVCAR-5 ovarian
  TGI: > 1120 µM
KM12 colon
  TGI: > 1120 µM
MOLT-4 leukemia
  TGI: > 1120 µM
OVCAR-4 ovarian
  TGI: > 1120 µM
DMS 114 small cell lung
  TGI: > 1120 µM
NCI-H226 lung
  TGI: > 1120 µM
SNB-19 CNS
  TGI: > 1120 µM
DLD-1 colon
  TGI: > 1120 µM
U251 CNS
  TGI: > 1120 µM
OVCAR-3 ovarian
  TGI: > 1120 µM
SK-MEL-5 melanoma
  TGI: > 1120 µM
NCI-H23 lung
  TGI: > 1120 µM
M19-MEL melanoma
  TGI: > 1120 µM
SF-539 CNS
  TGI: > 1120 µM
P388/ADR leukemia
  TGI: > 1120 µM
CCRF-CEM leukemia
  TGI: > 1120 µM
SW-620 colon
  TGI: > 1120 µM
UACC-257 melanoma
  TGI: > 1120 µM
SK-OV-3 ovarian
  TGI: > 1120 µM
DMS 273 small cell lung
  TGI: > 1120 µM
RPMI-8226 leukemia
  TGI: > 1120 µM
K-562 leukemia
  TGI: > 1120 µM
MALME-3M melanoma
  TGI: > 1120 µM
HT29 colon
  TGI: > 1120 µM
SF-295 CNS
  TGI: > 1120 µM
NCI-H522 lung
  TGI: > 1120 µM
KM20L2 colon
  TGI: > 1120 µM
IGROV1 ovarian
  TGI: > 1120 µM
HL-60(TB) leukemia
  TGI: > 1120 µM
HCT-15 colon
  TGI: > 1120 µM
A498 renal
  TGI: > 52 µM
SK-MEL-28 melanoma
  TGI: > 1120 µM
HCC-2998 colon
  TGI: > 1120 µM
EKVX NSCLC
  TGI: > 350 µM
HOP-62 NSCLC
  TGI: > 1120 µM
HCT-116 colon
  TGI: > 1120 µM
SN12K1 renal
  TGI: > 1120 µM
A549 NSCLC
  TGI: > 1120 µM
XF 498 CNS
  TGI: > 112 µM
UO-31 renal
  TGI: > 1120 µM
SK-MEL-2 melanoma
  TGI: > 1120 µM
LOX IMVI melanoma
  TGI: > 1120 µM
NCI/ADR-RES ovarian
  TGI: > 707 µM

## CN=C1CN=C(OP(=O)(N2CCOCC2)N2CCOCC2)c2cc(Cl)ccc2N1
SNB-78 CNS
  TGI: > 100 µM
M14 melanoma
  TGI: > 100 µM
HOP-18 NSCLC
  TGI: > 100 µM
RXF 393 renal
  TGI: > 100 µM
CAKI-1 renal
  TGI: > 100 µM
SN12C renal
  TGI: > 100 µM
OVCAR-8 ovarian
  TGI: > 100 µM
SNB-75 CNS
  TGI: > 100 µM
UACC-62 melanoma
  TGI: > 100 µM
NCI-H460 lung
  TGI: > 100 µM
ACHN renal
  TGI: > 100 µM
OVCAR-5 ovarian
  TGI: > 100 µM
KM12 colon
  TGI: > 100 µM
SR leukemia
  TGI: > 100 µM
MOLT-4 leukemia
  TGI: > 100 µM
OVCAR-4 ovarian
  TGI: > 100 µM
DMS 114 small cell lung
  TGI: > 100 µM
NCI-H226 lung
  TGI: > 100 µM
SNB-19 CNS
  TGI: > 100 µM
DLD-1 colon
  TGI: > 100 µM
U251 CNS
  TGI: > 100 µM
OVCAR-3 ovarian
  TGI: > 100 µM
SK-MEL-5 melanoma
  TGI: > 100 µM
NCI-H23 lung
  TGI: > 100 µM
M19-MEL melanoma
  TGI: > 100 µM
SF-539 CNS
  TGI: > 100 µM
LXFL 529 NSCLC
  TGI: > 100 µM
TK-10 renal
  TGI: > 100 µM
CCRF-CEM leukemia
  TGI: > 100 µM
SW-620 colon
  TGI: > 100 µM
UACC-257 melanoma
  TGI: > 100 µM
DMS 273 small cell lung
  TGI: > 100 µM
RPMI-8226 leukemia
  TGI: > 100 µM
K-562 leukemia
  TGI: > 100 µM
786-0 renal
  TGI: > 100 µM
MALME-3M melanoma
  TGI: > 100 µM
HT29 colon
  TGI: > 100 µM
SF-295 CNS
  TGI: > 100 µM
NCI-H522 lung
  TGI: > 100 µM
KM20L2 colon
  TGI: > 100 µM
HL-60(TB) leukemia
  TGI: > 100 µM
HCT-15 colon
  TGI: > 100 µM
A498 renal
  TGI: > 100 µM
SK-MEL-28 melanoma
  TGI: > 100 µM
HCC-2998 colon
  TGI: > 100 µM
EKVX NSCLC
  TGI: > 100 µM
HCT-116 colon
  TGI: > 100 µM
A549 NSCLC
  TGI: > 100 µM
RXF-631 renal
  TGI: > 100 µM
XF 498 CNS
  TGI: > 100 µM
UO-31 renal
  TGI: > 100 µM
SK-MEL-2 melanoma
  TGI: > 100 µM
LOX IMVI melanoma
  TGI: > 100 µM

## CC(C)CCCCCCCCCCCCC(=O)NCC(=O)NC1C(C)OC(Nc2ncnc3nc[nH]c23)C(O)C1O (centres undefined)
SNB-78 CNS
  TGI: 0.00718 µM and 0.00618 µM
M14 melanoma
  GI50: 0.00252 µM
RXF 393 renal
  GI50: 0.00101 µM
  TGI: 0.0369 µM
MCF7 breast
  TGI: 0.264 µM
CAKI-1 renal
  GI50: 0.00264 µM
SN12C renal
  GI50: 0.00548 µM
  TGI: 0.683 µM
OVCAR-8 ovarian
  GI50: 0.00187 µM
  TGI: 0.00924 µM and 0.0182 µM
SF-268 CNS
  GI50: 0.000965 µM
  TGI: 0.343 µM
SNB-75 CNS
  GI50: 0.0522 µM
  TGI: 0.00316 µM
UACC-62 melanoma
  GI50: 0.000425 µM and 0.000705 µM
  TGI: 0.00892 µM and 0.0226 µM
NCI-H460 lung
  TGI: 0.00577 µM and < 0.0111 µM
HOP-92 NSCLC
  GI50: 0.000324 µM
  TGI: 0.00219 µM and 0.00491 µM
ACHN renal
  GI50: 0.00153 µM
  TGI: 0.00666 µM
OVCAR-5 ovarian
  GI50: 0.00814 µM
KM12 colon
  GI50: 0.000442 µM
  TGI: 0.208 µM
SR leukemia
  GI50: 0.00451 µM
MOLT-4 leukemia
  GI50: 0.00213 µM
  TGI: 0.00788 µM and 0.0323 µM
OVCAR-4 ovarian
  GI50: 0.0148 µM
  TGI: 0.00803 µM
DMS 114 small cell lung
  GI50: 0.00161 µM and 0.0148 µM
  TGI: 0.263 µM and 0.0506 µM
SNB-19 CNS
  GI50: 0.00845 µM
DLD-1 colon
  TGI: 0.105 µM
U251 CNS
  GI50: 0.000334 µM
  TGI: 0.038 µM
OVCAR-3 ovarian
  TGI: 0.0024 µM
NCI-H23 lung
  GI50: 0.00875 µM
  TGI: 0.172 µM
M19-MEL melanoma
  GI50: 0.000861 µM
  TGI: 0.014 µM
SF-539 CNS
  GI50: 0.011 µM
LXFL 529 NSCLC
  GI50: 0.00336 µM
  TGI: 0.515 µM
TK-10 renal
  TGI: 0.0096 µM and 0.0809 µM
CCRF-CEM leukemia
  TGI: 0.223 µM
SW-620 colon
  GI50: 0.00218 µM
  TGI: 0.146 µM and 0.0233 µM
UACC-257 melanoma
  TGI: 0.472 µM
SK-OV-3 ovarian
  GI50: 0.000454 µM and 0.00314 µM
  TGI: 0.00397 µM and 0.0286 µM
DMS 273 small cell lung
  GI50: 0.0184 nM
  TGI: 0.000586 µM
K-562 leukemia
  GI50: 0.0414 µM
786-0 renal
  GI50: 0.00182 µM
  TGI: 0.232 µM
MALME-3M melanoma
  GI50: 0.00254 µM
HT29 colon
  GI50: 0.00453 µM
SF-295 CNS
  GI50: 0.0176 µM
  TGI: < 0.0295 µM
NCI-H522 lung
  GI50: 0.00137 µM
  TGI: 0.0182 µM
KM20L2 colon
  GI50: 0.0575 nM
  TGI: 0.497 µM
IGROV1 ovarian
  GI50: 0.00319 µM
  TGI: 0.082 µM and < 0.0444 µM
HL-60(TB) leukemia
  GI50: 0.001 µM
  TGI: 0.0046 µM and 0.0141 µM
HCT-15 colon
  GI50: 0.573 µM
  TGI: 3.84 µM
SK-MEL-28 melanoma
  GI50: 0.00869 µM and 0.0484 µM
  TGI: 0.485 µM and 1.26 µM
HCC-2998 colon
  GI50: 0.00121 µM
EKVX NSCLC
  GI50: 0.0251 µM
HOP-62 NSCLC
  TGI: 0.00859 µM
SN12K1 renal
  TGI: 0.116 µM
A549 NSCLC
  GI50: 0.00324 µM
  TGI: 0.472 µM and 0.19 µM
RXF-631 renal
  TGI: 0.000583 µM
XF 498 CNS
  GI50: 0.000129 µM
  TGI: 0.000925 µM
UO-31 renal
  GI50: 0.00201 µM
SK-MEL-2 melanoma
  GI50: 0.0183 µM
LOX IMVI melanoma
  GI50: 0.0002 µM
NCI/ADR-RES ovarian
  TGI: 0.0716 µM
